Each compound was assayed against Stimulator of interferon genes protein (Homo sapiens, UniProt Q86WV6) (assay: Activation of human STING R232 variant transfected in HEK293T cells expressing ISRE.ISG54 luciferase reporter assessed as secretory reporter gene activity by measuring luciferase level incubated for 20 hrs by luminometer).
Stimulator of interferon genes protein, sequence (Q86WV6 whole entry, looked up): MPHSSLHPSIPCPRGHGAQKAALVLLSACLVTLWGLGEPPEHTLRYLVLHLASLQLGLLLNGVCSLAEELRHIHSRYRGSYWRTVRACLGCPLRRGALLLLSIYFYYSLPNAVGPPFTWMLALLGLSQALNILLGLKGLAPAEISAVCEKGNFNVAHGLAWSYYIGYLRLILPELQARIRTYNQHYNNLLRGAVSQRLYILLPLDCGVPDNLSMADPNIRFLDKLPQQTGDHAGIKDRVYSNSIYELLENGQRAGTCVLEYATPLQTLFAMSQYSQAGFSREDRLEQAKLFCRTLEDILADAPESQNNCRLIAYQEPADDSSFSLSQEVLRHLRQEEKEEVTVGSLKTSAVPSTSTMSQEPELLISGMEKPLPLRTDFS
Format: cell-based
In the case of `C[C@@H]1Sc2ccc(C(=O)NCc3cc4cc(F)ccc4o3)cc2-n2c(-c3ccc(F)cc3)nnc21`, the EC50 is reported as 40 nM. `C[C@H]1Sc2ccc(C(=O)NCc3cc4cc(F)ccc4o3)cc2-n2c(-c3ccc(F)cc3)nnc21` gave an EC50 of 1090 nM. `O=C(NCc1c(F)cc(F)cc1F)c1ccc2c(c1)-n1c(nnc1-c1ccccc1)CS2` was tested, and the EC50 was 2080 nM. `CC1Sc2ncc(C(=O)NCc3cc4ccccc4o3)cc2-n2c(-c3ccccc3)nnc21` (racemic) gave an EC50 of 414 nM. With `CC1Sc2ccc(C(=O)NCc3c(F)cc(F)cc3F)cc2-n2c(Cc3ccccc3)nnc21` (racemic) the EC50 was 1540 nM. With `CC1Sc2ccc(C(=O)NCc3cc4cc(F)ccc4o3)cc2-n2c(-c3ccc(F)cc3)nnc21` (racemic) the EC50 was 48 nM. In the case of `CC1Sc2ccc(C(=O)NCc3c(F)cc(F)cc3F)cc2-n2c(-c3ccc(F)cc3)nnc21` (racemic), the EC50 is reported as 373 nM. For `CC1Sc2ccc(C(=O)NCc3cc4cc(F)ccc4o3)cc2-n2c(-c3ccc(F)cc3F)nnc21` (racemic), the EC50 was 53 nM. For `Cc1cccc(-c2nnc3n2-c2cc(C(=O)NCc4c(F)cc(F)cc4F)ccc2SC3C)c1` (racemic), the EC50 was 1560 nM. `CC1Sc2ccc(C(=O)NCc3cc4ccc(F)cc4o3)cc2-n2c(-c3ccc(F)cc3)nnc21` (racemic) was tested, and the EC50 was 65 nM. Compound `CC1Sc2ccc(C(=O)NCc3cc4cc(F)c(F)cc4o3)cc2-n2c(-c3ccc(F)cc3)nnc21` (racemic) has an EC50 of 45 nM. `CC1Sc2ccc(C(=O)NCc3c(F)cc(F)cc3F)cc2-n2c(-c3cccc(F)c3)nnc21` (racemic) showed an EC50 of 2880 nM. For `CC1Sc2ccc(C(=O)NCc3c(F)cc(F)cc3F)cc2-n2c(-c3ccncc3)nnc21` (racemic), the EC50 was 1630 nM. `CC1Sc2ccc(C(=O)NCc3c(F)cc(F)cc3F)cc2-n2c(-c3ccccc3F)nnc21` (racemic) gave an EC50 of 804 nM. `CC1Sc2ccc(C(=O)NCc3c(F)cc(F)cc3F)cc2-n2c(-c3ccc(Cl)cc3F)nnc21` (racemic) gave an EC50 of 1970 nM. Compound `Cc1ccc(-c2nnc3n2-c2cc(C(=O)NCc4c(F)cc(F)cc4F)ccc2SC3C)cc1` (racemic) has an EC50 of 3810 nM. `CC1Sc2ncc(C(=O)NCc3cc4cc(F)ccc4o3)cc2-n2c(-c3ccc(F)cc3)nnc21` (racemic) gave an EC50 of 111 nM.

— ChEMBL document CHEMBL6182884, “Synthesis and structure-activity evaluation of a series of novel tricyclic STING activators” (Eur J Med Chem, 2025)
